Test [1] in a line: Inhibition of N-terminal 6His-tagged SARS-CoV nsp14 N7-methyltransferase activity expressed in Escherichia coli using GpppAC4 synthetic RNA and [3H]-SAM as substrate incubated for 30 mins in presence of SAM by Liquid scintillation analysis. Also noted: species or system Severe acute respiratory syndrome-related coronavirus.
A short description of test [2]: Inhibition of SARS-CoV-2 nsp16 (1 to 298 residues) expressed in Escherichia coli BL21(DE3)RIL cells using RNA and [3H]SAM as substrate incubated for 1 hrs by SPA-based assay. The arrangement: species or system Severe acute respiratory syndrome coronavirus 2.
In test [3] the target is T1, Replicase polyprotein 1ab (Severe acute respiratory syndrome coronavirus 2, UniProt P0DTD1). The test is described as follows: Inhibition of C-terminal His-tagged SARS-CoV-2 PLpro BetaCoV/Wuhan/WIV04/2019 expressed in Escherichia coli BL21(DE3) using ISG-AMC substrate incubated for 3 hrs by FRET analysis.
Test [4] has as its target T1, Replicase polyprotein 1ab. In words: Inhibition of SARS-CoV-2 main protease by FRET assay.
Test [5] relates to SARS-CoV-2. In words: Antiviral activity against SARS CoV-2 USA-WA1/2020 infected in African green monkey Vero E6 cells assessed as reduction in viral plaque formation incubated for 3 days by plaque reduction neutralization assay. Type of test: functional, organism-based. The conditions noted are these: Severe acute respiratory syndrome coronavirus 2, USA-WA1/2020, Vero C1008, 72 h. Background: Plaque reduction counts the foci of infection that form in a cell layer.

Test [6] concerns the target T1, Replicase polyprotein 1ab. The test is described as follows: Inhibition of recombinant SARS-CoV-2 PLpro expressed in Escherichia coli BL21 (DE3) using Arg-Leu-Arg-Gly-Gly-AMC as substrate preincubated for 5 mins followed by substrate addition measured after 6 mins by fluorescence based assay.
Test [7] has as its system SARS-CoV-2. The test is described as follows: Antiviral activity against SARS-CoV-2 infected in African green monkey Vero E6 cells assessed as inhibition of virus growth. In kind it is functional, organism-based. As to conditions: Severe acute respiratory syndrome coronavirus 2, Vero C1008.
For a further test, the target named is Furin (Homo sapiens, UniProt P09958). In words: Inhibition of furin (unknown origin).
The subject of test [8] is SARS-CoV-2. In words: microbe, parasite or virus in culture. As to conditions: Severe acute respiratory syndrome coronavirus 2, Vero, 24 h.
Test [9] has as its target T1, Replicase polyprotein 1ab. The test is described as follows: Inhibition of recombinant SARS-CoV-2 Main protease by FRET analysis.

The structures appear in SMILES notation.

As usually defined, the IC50 is the midpoint of a concentration-inhibition curve. In general, EC50 refers to the midpoint of the concentration-response curve.

Sequence of Furin (P09958 whole entry): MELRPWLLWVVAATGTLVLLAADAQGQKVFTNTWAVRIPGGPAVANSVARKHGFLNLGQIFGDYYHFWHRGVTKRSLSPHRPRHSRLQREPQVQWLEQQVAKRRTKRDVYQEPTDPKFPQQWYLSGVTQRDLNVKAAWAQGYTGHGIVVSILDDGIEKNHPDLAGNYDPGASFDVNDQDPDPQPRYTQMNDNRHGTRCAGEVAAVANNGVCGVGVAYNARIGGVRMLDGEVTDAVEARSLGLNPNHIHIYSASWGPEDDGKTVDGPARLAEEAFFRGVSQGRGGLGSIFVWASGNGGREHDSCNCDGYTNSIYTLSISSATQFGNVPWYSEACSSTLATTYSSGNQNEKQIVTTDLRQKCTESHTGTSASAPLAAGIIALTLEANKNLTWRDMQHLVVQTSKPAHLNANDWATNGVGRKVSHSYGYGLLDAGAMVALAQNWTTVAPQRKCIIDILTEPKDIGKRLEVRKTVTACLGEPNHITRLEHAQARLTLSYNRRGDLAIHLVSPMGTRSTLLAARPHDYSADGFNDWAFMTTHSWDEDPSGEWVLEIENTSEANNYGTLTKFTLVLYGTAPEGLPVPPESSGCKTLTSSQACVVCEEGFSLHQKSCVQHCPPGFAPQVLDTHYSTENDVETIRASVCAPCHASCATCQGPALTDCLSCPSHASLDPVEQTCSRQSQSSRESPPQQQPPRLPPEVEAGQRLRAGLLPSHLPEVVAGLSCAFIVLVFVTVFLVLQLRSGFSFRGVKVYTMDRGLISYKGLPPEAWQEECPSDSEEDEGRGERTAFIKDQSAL

For `N#Cc1cn([C@@H]2O[C@H](CSCC[C@H](N)C(=O)O)[C@@H](O)[C@H]2O)c2ncnc(N)c12`, the values for the IC50 in test [1] and in test [2] were 70 nM and 1200 nM, respectively.

For the molecule `CCOC(=O)/C=C/[C@H](C[C@@H]1CCNC1=O)NC(=O)[C@H](Cc1ccccc1)NC(=O)[C@@H](Cc1ccc(F)cc1)NC(=O)OC(C)(C)C`, the IC50 in test [3] was determined as 60 nM; in [4] it was 1800 nM.

`CCOC(=O)/C=C/[C@H](C[C@@H]1CCNC1=O)NC(=O)[C@H](Cc1ccccc1)NC(=O)[C@H](N)Cc1ccccc1`: the IC50 in test [3] was found to be 60 nM.

`Nc1ncnc2c1ncn2[C@@H]1O[C@H](C[C@@H](CO)CC[C@H](N)C(=O)O)[C@@H](O)[C@H]1O`: the IC50 is 190 nM in test [1] and 3400 nM in test [2].

Consider `CCCCCCCCCCCCCCCc1cccc(O)c1C(=O)O` [ANACARDIC ACID], for which the concentration giving a half-maximal response (EC50) with SARS-CoV-2 [5] worked out at 9000 nM.

In the case of `CC(C)[C@H](NC(=O)[C@H](CCCNC(=N)N)NC(=O)N[C@@H](Cc1ccccc1)C(=O)O)C(=O)N[C@H](C=O)CCCNC(=N)N` [ANTIPAIN], in test [6], the IC50 is 3 nM. The concentration for a half-maximal effect (EC50) with SARS-CoV-2 [7] was determined as 640 nM.

Molecule `N=C(N)c1ccc(/N=N/Nc2ccc(C(=N)N)cc2)cc1` [DIMINAZENE] had an IC50 against Furin of 580 nM.

With `CCCCCC/C=C\CCCCCCCc1cccc(O)c1C(=O)O` [GINGKOLIC ACID], the EC50 in the test on SARS-CoV-2 [5] was determined as 8300 nM.

As to `N=C(N)Nc1ccc(C(=O)Oc2ccc3cc(C(=N)N)ccc3c2)cc1` [NAFAMOSTAT], the response in the test on SARS-CoV-2 [8] was half-maximal at 10 nM (EC50).

For the molecule `O=C(OC[C@H]1O[C@@H](OC(=O)c2cc(O)c(O)c(OC(=O)c3cc(O)c(O)c(O)c3)c2)[C@H](OC(=O)c2cc(O)c(O)c(OC(=O)c3cc(O)c(O)c(O)c3)c2)[C@@H](OC(=O)c2cc(O)c(O)c(OC(=O)c3cc(O)c(O)c(O)c3)c2)[C@@H]1OC(=O)c1cc(O)c(O)c(OC(=O)c2cc(O)c(O)c(O)c2)c1)c1cc(O)c(O)c(OC(=O)c2cc(O)c(O)c(O)c2)c1` [TANNIC ACID], in test [9], the IC50 was 13200 nM.

The values are drawn from ChEMBL document CHEMBL5500424, “New Strategies for Responding to SARS-CoV-2: The Present and Future of Dual-Target Drugs” (J Med Chem, 2024).
